# Where a name gives a salt, the structure may show the parent alone.
# Tests used:
# Abcd1− mice spinal cord = assay: Mitochondrial depletion and bioenergetic failure in Abcd1− mice spinal cord; type: in vivo; settings: 12 months of age, DMF 100 mg/kg/day in chow for 4 months
# Description: b) NRF2-dependent antioxidative genes (Hmox1, Nqo1 and Gst α 3) expression in WT (n=8), Abcd1^− (n=8) and Abcd1^−+DMF (n=8) mice spinal cord at 12 months of age. Gene expression levels were normalized relative to Rplp0. Quantification is represented as fold change to WT mice. c) Mitochondrial DNA (mtDNA) levels in WT (n=8), Abcd1^− (n=8) and Abcd1^−+DMF (n=8) mice spinal cord at 12 months of age. mtDNA content was measured by quantitative RT-PCR and expressed as the ratio of mtDNA (CytB levels) to nuclear DNA (nDNA, Cebpa levels). Quantification is depicted as fold change to WT mice. d) Sirt1, Pgc-1α, Nrf1 and Tfam expression was measured by quantitative RT-PCR in WT (n=8), Abcd1^− (n=8) and Abcd1^−+DMF (n=8) mice spinal cord at 12 months of age. Gene expression levels were normalized relative to Rplp0. Quantification is depicted as fold change to WT mice. e) ATP levels in WT (n=8), Abcd1^− (n=8) and Abcd1^−+DMF (n=8) mice spinal cord at 12 months of age. Quantification is represented as fold change to WT mice. Data are shown as mean±SD (*p<0.05, **p<0.01, ***p<0.001 after one-way ANOVA test followed by Tukey's post-hoc test; #p<0.05 after one-way ANOVA test followed by Dunnett's post-hoc test; p<0.05, p<0.01 after non-parametric Kruskal-Wallis' test).
# Cages contained 3 to 5 animals.
# We used two X-ALD mouse models in this study. We characterized the biochemical signs of adult X-ALD in Abcd1^− mice at 12 months of age. These mice show biochemical signs of pathology, including oxidative stress and energetic homeostasis impairment, before the first clinical signs of AMN-like pathology (axonopathy and locomotor impairment) appear at 20 months.
# For biochemical analysis, we killed the mice and stored the tissues at −80° C. after snap-freezing them in liquid nitrogen. For histological analysis, spinal cord was harvested from 18-month-old mice after perfusing them with 4% paraformaldehyde (PFA; Sigma-Aldrich, Ref. 441244) in 0.1 M phosphate buffer pH 7.4. […]
# [1] = system: Abcd1−/Abcd2−/− (DKO) mice spinal cord; assay: Immunohistological analysis of axonal pathologies in Abcd1−/Abcd2−/− (DKO) mice spinal cord; type: in vivo; settings: 18 months of age, DMF 100 mg/kg in chow for 6 months
# Description: a-x) Immunohistological analysis of axonal pathologies performed in 18-month-old WT, Abcd1^−/Abcd2^−/− (DKO) and Abcd1^−/Abcd2^−/− mice treated with DMF (DKO+DMF) (n=5 per genotype and condition). Spinal cord immunohistological sections were processed for (a-c) Iba1, (d-f) GFAP, (g-i) Synaptophysin, (j-l) APP, (m-o) Sudan black, (p-r) 8-oxo-dG, (s-u) CYT C and (v-x) SMI-32 immunostaining. Representative images for (a, d, g, j, m, p, s, v) WT, (b, e, h, k, n, q, t, w) DKO, and (c, f, i, l, o, r, u, x) DKO+DMF are shown. Scale bars=25 μm (a-r) and […] (s-x). y) Quantification of synaptophysin and APP accumulations in spinal cord immunohistological sections of WT (n=5), DKO (n=5) and DKO+DMF (n=5) mice. z) Bar-cross and treadmill tests performed on 18-month-old WT (n=14), Abcd1^−//Abcd2^−/− (DKO) (n=16) and Abcd1^−//Abcd2^−/− mice treated with DMF (DKO+DMF) (n=14). […] Values are expressed as mean±SD (*p<0.05, **p<0.01, ***p<0.001 after one-way ANOVA test followed by Tukey's post hoc test; p<0.05, p<0.001 after non-parametric Kruskal-Wallis' test).
# To address the therapeutic effect of DMF, we assessed the clinical signs of AMN in Abcd1^−/Abcd2^−/− (DKO) mice, which display increased VLCFA accumulation in the spinal cord, higher levels of oxidative damage to proteins, and a more severe AMN-like pathology with an earlier onset at 12 months of age.
# For biochemical analysis, we killed the mice and stored the tissues at −80° C. after snap-freezing them in liquid nitrogen. For histological analysis, spinal cord was harvested from 18-month-old mice after perfusing them with 4% paraformaldehyde (PFA; Sigma-Aldrich, Ref. 441244) in 0.1 M phosphate buffer pH 7.4. Histological and behavioural tests were performed in a blind way with respect to the animal's genotype and for the treatment administered.
# To evaluate the effect of DMF on axonal degeneration and locomotor impairment in X-ALD, Abcd1^−/Abcd2^−/− mice (DKO) were fed with chow including DMF (100 mg/kg).
smiles,measurement,setting,value
"COC(=O)/C=C/C(=O)OC [DMF, dimethyl fumarate]",mitochondrial DNA (mtDNA) levels,Abcd1− mice spinal cord; Abcd1− mouse spinal cord,normalized
same,"mitochondrial biogenesis genes mRNA expression (Sirt1, Pgc-1α, Nrf1, Tfam)",Abcd1− mice spinal cord; Abcd1− mouse spinal cord,normalized
same,ATP levels,Abcd1− mice spinal cord; X-ALD (Abcd1−) mouse spinal cord,normalized
same,accumulation of APP in axons,[1]; DKO mice spinal cord,prevented the accumulation
same,accumulation of synaptophysin in axons,[1]; DKO mice spinal cord,prevented the accumulation
same,astrocytosis (GFAP),[1]; DKO mice spinal cord,reversed
same,microgliosis (Iba1),[1]; DKO mice spinal cord,reversed
same,mitochondrial levels (CYT C staining in motor neurons),[1]; DKO mice spinal cord,improved
same,motor neurons health (SMI-32 staining),[1]; DKO mice spinal cord,improved
same,oxidative damage to DNA (8-oxo-dG staining),[1]; DKO mice spinal cord,reduced
same,myelin debris along the spinal cord (Sudan black),[1]; DKO mice,halted the appearance

# From patent publication US11382889B2, “NRF2 activators for the prevention and/or treatment of axonal degeneration” (priority 2018, dated 2022)
